Test results taken from article PMC11351453 (BMC Chemistry, 2024).
pIC50: −log10 of the molar value.

Legend:
[1] = tested on: A549 cells; assay: cells; type: cell-based; conditions: Homo sapiens, A549, 72 h, read-out: IC50 A549
[2] = tested on: H1975 cells; assay: AO staining analysis; type: cell-based; conditions: T001-10027877 0.5, 1, 2 µM, AZD9291 1 µM

pIC50 [1]: 5.31
SMILES: C=CC(=O)Nc1cc(Nc2nccc(-c3cn(C)c4ccccc34)n2)c(OC)cc1N(C)CCN(C)C [AZD9291]
cell morphology / induction of apoptosis (AO staining) [2]: induced significant shrinkage of the cell membrane
